Results as given in US12419962B2, “Quinazolines, pharmaceutical compositions, and therapeutic applications” (BioTheryX, Inc., priority 2022, dated 2025).

Molecular target: T1, HiBiT-tagged endogenous SOS1 protein (Homo sapiens, UniProt Q07889)
T1 construct: HEK293 cells were engineered to express a HiBiT-tagged endogenous SOS1 protein; endogenous in cells; host or cells: HEK293 cells, engineered so that endogenous SOS1 carries a HiBiT tag
T1 sequence (Q07889 1-1333): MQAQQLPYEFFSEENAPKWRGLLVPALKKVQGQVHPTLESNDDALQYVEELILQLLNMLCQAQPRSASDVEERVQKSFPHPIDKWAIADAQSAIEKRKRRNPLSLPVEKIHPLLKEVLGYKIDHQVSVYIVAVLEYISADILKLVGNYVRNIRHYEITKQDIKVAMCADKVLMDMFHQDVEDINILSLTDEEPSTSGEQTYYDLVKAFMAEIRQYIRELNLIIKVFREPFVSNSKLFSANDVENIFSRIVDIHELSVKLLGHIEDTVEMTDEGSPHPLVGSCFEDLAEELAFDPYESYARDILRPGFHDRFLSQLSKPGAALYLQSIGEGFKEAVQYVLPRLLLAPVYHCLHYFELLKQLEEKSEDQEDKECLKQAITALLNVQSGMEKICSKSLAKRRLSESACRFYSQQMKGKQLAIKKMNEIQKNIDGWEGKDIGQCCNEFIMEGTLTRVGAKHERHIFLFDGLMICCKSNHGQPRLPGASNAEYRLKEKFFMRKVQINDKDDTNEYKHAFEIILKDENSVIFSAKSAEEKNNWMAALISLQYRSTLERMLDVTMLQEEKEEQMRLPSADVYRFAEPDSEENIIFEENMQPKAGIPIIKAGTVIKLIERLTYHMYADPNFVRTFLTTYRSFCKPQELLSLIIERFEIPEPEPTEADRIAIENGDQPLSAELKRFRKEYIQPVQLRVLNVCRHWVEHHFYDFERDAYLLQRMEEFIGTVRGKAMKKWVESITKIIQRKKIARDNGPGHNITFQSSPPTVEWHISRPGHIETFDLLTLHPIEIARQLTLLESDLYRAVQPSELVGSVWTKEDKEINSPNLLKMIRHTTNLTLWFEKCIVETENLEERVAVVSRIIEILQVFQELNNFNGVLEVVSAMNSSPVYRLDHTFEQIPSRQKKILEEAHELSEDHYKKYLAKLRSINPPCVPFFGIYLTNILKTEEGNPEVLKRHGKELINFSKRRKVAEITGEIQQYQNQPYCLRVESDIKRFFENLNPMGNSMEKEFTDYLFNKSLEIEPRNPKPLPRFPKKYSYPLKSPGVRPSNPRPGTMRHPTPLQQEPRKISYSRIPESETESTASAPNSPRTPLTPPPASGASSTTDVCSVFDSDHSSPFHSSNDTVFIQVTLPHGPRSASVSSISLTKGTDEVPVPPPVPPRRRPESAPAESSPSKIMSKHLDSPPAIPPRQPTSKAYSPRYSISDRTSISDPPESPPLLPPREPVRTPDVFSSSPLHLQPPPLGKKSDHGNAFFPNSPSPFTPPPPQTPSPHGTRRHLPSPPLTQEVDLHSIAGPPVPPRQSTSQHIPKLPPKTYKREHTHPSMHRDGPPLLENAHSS
Assay: SOS1-HiBiT Degradation Assay
Type: cell-based
Details: HEK293 cells expressing HiBiT-tagged endogenous SOS1, 6 h treatment
Protocol: HEK293 cells were engineered to express a HiBiT-tagged endogenous SOS1 protein. The cells were cultured in DMEM media supplemented with 10% fetal bovine serum, streptomycin, and penicillin. The cells were seeded in a white walled 384-well plate at 12,500 cells/well in 50 μL culture media. The cells were incubated at 37° C. under 5% CO2 overnight. The cells were then treated with DMSO (control) or a compound for 6 h at 37° C. under 5% CO2. After incubation, 25 μL media was removed from each cell and 25 μL NANO-GLO® lytic detection reagent was added to each well. After a 10 min incubation with shaking, luminescence was measured using a PERKINELMER ENVISION® multimode plate reader.
The results are summarized in Table 1, where “A” represents a DC50 of no greater than 100 nM, “B” represents a DC50 of greater than 100 nM and no greater than 500 nM; “C” represents a DC50 of greater than 500 nM and no greater than 2 μM; and “D” represents a DC50 of greater than 2 μM; and where “A′” represents a Dmax of no less than 70%, “B′” represents a Dmax of less than 70% and no less than 50%; “C′” represents a Dmax of less than 50% and no less than 30%; and “D′” represents a Dmax of less than 30%. Compounds C1 and C2 are (R)-2-(3-(1-((6,7-dimethoxy-2-methylquinazolin-4-yl)amino)ethyl)phenyl)-2,2-difluoroethan-1-ol and (R)—N-(1-(3-amino-5-(trifluoromethyl)phenyl)ethyl)-6,7-dimethoxy-2-methylquinazolin-4-amine, respectively.

DC50	Dmax	Compound
> 10 µM	0%	COc1cc2nc(C)nc(N[C@H](C)c3cccc(C(F)(F)CO)c3)c2cc1OC [Compound C1, (R)-2-(3-(1-((6,7-dimethoxy-2-methylquinazolin-4-yl)amino)ethyl)phenyl)-2,2-difluoroethan-1-ol]
> 10 µM	0%	COc1cc2nc(C)nc(N[C@H](C)c3cc(N)cc(C(F)(F)F)c3)c2cc1OC [Compound C2, (R)—N-(1-(3-amino-5-(trifluoromethyl)phenyl)ethyl)-6,7-dimethoxy-2-methylquinazolin-4-amine]
